The values below come from patent US10034886B2, “GLP-1 receptor modulators” (Celgene International II SÀRL, priority 2014, dated 2018).

The target of the test is T1, GLP-1R (Homo sapiens, UniProt P43220).
T1 construct: host or cells: GLP-1R CRE-bla CHO-K1 cells
T1 sequence (P43220 24-463): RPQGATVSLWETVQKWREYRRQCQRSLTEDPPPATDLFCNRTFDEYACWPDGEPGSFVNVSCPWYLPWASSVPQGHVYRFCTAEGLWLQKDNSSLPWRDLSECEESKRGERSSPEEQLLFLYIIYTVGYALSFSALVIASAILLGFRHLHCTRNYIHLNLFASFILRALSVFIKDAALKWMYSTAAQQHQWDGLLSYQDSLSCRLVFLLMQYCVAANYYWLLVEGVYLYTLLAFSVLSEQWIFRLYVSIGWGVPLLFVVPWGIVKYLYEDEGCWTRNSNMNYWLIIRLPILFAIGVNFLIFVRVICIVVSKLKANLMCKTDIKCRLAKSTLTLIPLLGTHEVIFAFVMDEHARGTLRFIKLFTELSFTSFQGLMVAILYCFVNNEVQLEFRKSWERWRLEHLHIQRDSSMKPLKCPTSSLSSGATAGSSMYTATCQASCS
T1 sequence (P01275 100-127 partner limits assumed): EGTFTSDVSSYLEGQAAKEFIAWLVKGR
Kind of test: EC20 GLP-1(9-36) PAM cAMP assay: dose response of compound in the presence of fixed concentration of GLP-1(9-36). Conditions: dose response of compound in presence of fixed concentration of GLP-1(9-36), GLP-1R CRE-bla CHO-K1 cells, read-out: EC20 GLP-1(9-36) PAM EC50. It counts as cell-based. The procedure, abridged: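 GLP-1R CRE-bla CHO-K1 cells treated 30 min at 37 °C with 12-point compound dose response plus fixed EC20 GLP-1(9-36), with IBMX, in HBSS/HEPES/0.1% BSA pH 7.4. Total cAMP measured by luminescent detection against standard curve; EC50 and Emax from non-linear regression.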
(Changes in cAMP serve as a functional read-out for many G protein-coupled receptors.)
The term EC50 denotes the concentration at which the effect is half-maximal. As for `CCCCCCCOc1ccc(-c2cnc(-c3ccc(C[C@H](NC(=O)c4ccc(C(C)(C)C)s4)C(=O)NC(C(=O)O)[C@@H](O)c4ccccc4)cc3)nc2)cc1` (some centres unmarked) [Compound 651], the concentration for a half-maximal effect (EC50) was less than 800 nM.

Take `CCCCCCCOc1ccc(-c2cnc(-c3ccc(C[C@H](NC(=O)c4ccc(C(C)(C)C)s4)C(=O)N4CCC(F)(C(=O)O)C4)cc3)nc2)cc1` (some centres unmarked) [Compound 652]: the EC50 was less than 800 nM.

For `CCCCCCCOc1ccc(-c2cnc(-c3ccc(C[C@H](NC(=O)c4ccc(C(C)(C)C)s4)C(=O)N4CC(C(=O)O)CCC4C)cc3)nc2)cc1` (some centres unmarked) [Compound 653], the EC50 is less than 800 nM.

As to `CCCCCCCOc1ccc(-c2cnc(-c3ccc(C[C@H](NC(=O)c4ccc(C(C)(C)C)s4)C(=O)N4CC(C(=O)NS(=O)(=O)CC(=O)OC)C4)cc3)nc2)cc1` [Compound 654, methyl (S)-2-(N-(1-(2-(5-(tert-butyl)thiophene-2-carboxamido)-3-(4-(5-(4-(heptyloxy)phenyl)pyrimidin-2-yl)phenyl)propanoyl)azetidine-3-carbonyl)sulfamoyl)acetate], the EC50 is less than 800 nM.

For the compound `CCCCCCCOc1ccc(-c2cnc(-c3ccc(C[C@H](NC(=O)c4ccc(C(C)(C)C)s4)C(=O)NC(C(=O)O)C(O)c4ccc(S(C)(=O)=O)cc4)cc3)nc2)cc1` (some centres unmarked) [Compound 655], the 50% effective concentration (EC50) is 800 to 2500 nM.

Regarding `CCCCCCCOc1ccc(-c2cnc(-c3ccc(C[C@H](NC(=O)c4ccc(C(C)(C)C)s4)C(=O)N[C@@H](C(=O)O)[C@@H](C)CC)cc3)nc2)cc1` [Compound 656], the concentration for a half-maximal effect (EC50) lay in the range of 800 to 2500 nM.

For `CCCCCCCOc1ccc(-c2cnc(-c3ccc(C[C@H](NC(=O)c4ccc(C(C)(C)C)s4)C(=O)N[C@H](C(=O)O)[C@H](C)CC)cc3)nc2)cc1` [Compound 657], the EC50 was in the range of 800 to 2500 nM.

On to `CCCCCCCOc1ccc(-c2cnc(-c3ccc(C[C@H](NC(=O)c4ccc(C(C)(C)C)s4)C(=O)N[C@@H](C(=O)O)[C@H](C)CC)cc3)nc2)cc1` [Compound 658], for which the EC50 was less than 800 nM.

With `CCCCCCCOc1ccc(-c2cnc(-c3ccc(C[C@H](NC(=O)c4ccc(C(C)(C)C)s4)C(=O)N[C@@H](C(=O)O)[C@@H](C)O)cc3)nc2)cc1` [Compound 659], the EC50 is less than 800 nM.

As to `CCCCCCCOc1ccc(-c2cnc(-c3ccc(C[C@H](NC(=O)c4ccc(C(C)(C)C)cc4)C(=O)N4CCC[C@H]4C(=O)O)cc3)nc2)cc1` [Compound 660], the EC50 is 800 to 2500 nM.

Turning to `CCCCCCCOc1ccc(-c2cnc(-c3ccc(C[C@H](NC(=O)c4ccc(C(C)(C)C)cc4)C(=O)N4CCC(O)C(C(=O)O)C4)cc3)nc2)cc1` (some centres unmarked) [Compound 661], the concentration giving a half-maximal response (EC50) was less than 800 nM.

`CCCCCCCOc1ccc(-c2cnc(-c3ccc(C[C@H](NC(=O)c4ccc(C(C)(C)C)cc4)C(=O)N4CC(O)CC(C(=O)O)C4)cc3)nc2)cc1` (some centres unmarked) [Compound 662]: the 50% effective concentration (EC50) is less than 800 nM.

Take `CCCCCCCOc1ccc(-c2cnc(-c3ccc(C[C@H](NC(=O)c4ccc(C(C)(C)C)s4)C(=O)N[C@H](CC(=O)NC)C(=O)O)cc3)nc2)cc1` [Compound 663]: the concentration giving a half-maximal response (EC50) is 800 to 2500 nM.

Regarding `CCCCCCCOc1ccc(-c2cnc(-c3ccc(C[C@H](NC(=O)c4ccc(C(C)(C)C)s4)C(=O)N[C@@H](C(=O)O)[C@H](C)O)cc3)nc2)cc1` [Compound 664], the EC50 is 2500 to 5000 nM.

Turning to `CCCCCCCOc1ccc(-c2cnc(-c3ccc(C[C@H](NC(=O)c4ccc(C(C)(C)C)s4)C(=O)N[C@H](C(=O)O)[C@@H](O)c4ccccc4)cc3)nc2)cc1` [Compound 665], the EC50 was 800 to 2500 nM.

For `CCCCCCCOc1ccc(-c2cnc(-c3ccc(C[C@H](NC(=O)c4ccc(C(C)(C)C)s4)C(=O)N[C@@H](C(=O)O)[C@H](O)c4ccccc4)cc3)nc2)cc1` [Compound 666, (2R,3R)-2-((S)-2-(5-(tert-butyl)thiophene-2-carboxamido)-3-(4-(5-(4-(heptyloxy)phenyl)-pyrimidin-2-yl)phenyl)propanamido)-3-hydroxy-3-phenylpropanoic acid], the concentration giving a half-maximal response (EC50) was 800 to 2500 nM.

Regarding `CCCCCCCOc1ccc(-c2cnc(-c3ccc(C[C@H](NC(=O)c4ccc(C(C)(C)C)s4)C(=O)N[C@@H](C(=O)O)[C@@H](O)c4ccccc4)cc3)nc2)cc1` [Compound 667, (2R,3S)-2-((S)-2-(5-(tert-butyl)thiophene-2-carboxamido)-3-(4-(5-(4-(heptyloxy)phenyl)pyrimidin-2-yl)phenyl)propanamido)-3-hydroxy-3-phenylpropanoic acid], the 50% effective concentration (EC50) is 800 to 2500 nM.

Turning to `CCCCCCCOc1ccc(-c2cnc(-c3ccc(C[C@H](NC(=O)c4ccc(C(C)(C)C)s4)C(=O)N4CC[C@H]4C(=O)O)cc3)nc2)cc1` [Compound 668], the EC50 was in the range of 800 to 2500 nM.

On to `CCCCCCCOc1ccc(-c2cnc(-c3ccc(C[C@H](NC(=O)c4ccc(C(C)(C)C)s4)C(=O)N4CC[C@@H]4C(=O)O)cc3)nc2)cc1` [Compound 669], for which the EC50 lay in the range of 800 to 2500 nM.

Regarding `CCCCCCCOc1ccc(-c2cnc(-c3ccc(C(NC(=O)c4ccc(C(C)(C)C)cc4)C(=O)O)cc3)nc2)cc1` (centres unmarked) [Compound 670], the concentration giving a half-maximal response (EC50) was 2500 to 5000 nM.

On to `CCCCCCCOc1ccc2nc(-c3ccc(C[C@H](NC(=O)c4ccc(C(C)(C)C)cc4)C(=O)O)cc3)ccc2c1` [Compound 671, (S)-2-(4-(tert-butyl)benzamido)-3-(4-(6-(heptyloxy)quinolin-2-yl)phenyl)propanoic acid], for which the EC50 fell in the range of 2500 to 5000 nM.

For the compound `CCCCCCCOc1ccc2cc(-c3ccc(C[C@H](NC(=O)c4ccc(C(C)(C)C)cc4)C(=O)O)cc3)ncc2c1` [Compound 672, (S)-2-(4-(tert-butyl)benzamido)-3-(4-(7-(heptyloxy)isoquinolin-3-yl)phenyl)propanoic acid], the EC50 fell in the range of 2500 to 5000 nM.

For `CCCCCCCOc1ccc2nc(-c3ccc(C[C@H](NC(=O)c4ccc(C(C)(C)C)cc4)C(=O)O)cc3)ncc2c1` [Compound 673, (S)-2-(4-(tert-butyl)benzamido)-3-(4-(6-(heptyloxy)quinazolin-2-yl)phenyl)propanoic acid], the 50% effective concentration (EC50) was 5000 to 10000 nM.

As for `CC(C)(C)c1ccc(C(=O)N[C@@H](Cc2ccc(-c3ncc(N4CCC(C(C)(C)C)CC4)cn3)cc2)C(=O)NCCC(=O)O)cc1` [Compound 674], the concentration giving a half-maximal response (EC50) lay in the range of 5000 to 10000 nM.

In the case of `CC(C)(C)c1ccc(C(=O)N[C@@H](Cc2ccc(-c3ncc(-c4ccc(C(C)(C)C)cc4)cn3)cc2)C(=O)NCCC(=O)O)cc1` [Compound 675], the EC50 lay within 5000 to 10000 nM.

For `CCCCCc1ccc(-c2cnc(-c3ccc(C[C@H](NC(=O)c4ccc(C(C)(C)C)cc4)C(=O)NCCC(=O)O)cc3)nc2)cc1` [Compound 676], the concentration giving a half-maximal response (EC50) lay in the range of 2500 to 5000 nM.

Turning to `CCCCc1ccc(-c2cnc(-c3ccc(C[C@H](NC(=O)c4ccc(C(C)(C)C)cc4)C(=O)NCCC(=O)O)cc3)nc2)cc1` [Compound 677], the EC50 was 2500 to 5000 nM.

Regarding `CCCCCCc1ccc(-c2cnc(-c3ccc(C[C@H](NC(=O)c4ccc(C(C)(C)C)cc4)C(=O)NCCC(=O)O)cc3)nc2)cc1` [Compound 678], the EC50 was in the range of 800 to 2500 nM.

Take `CCCCCCCc1ccc(-c2cnc(-c3ccc(C[C@H](NC(=O)c4ccc(C(C)(C)C)cc4)C(=O)NCCC(=O)O)cc3)nc2)cc1` [Compound 679]: the EC50 is 800 to 2500 nM.

In the case of `CC(C)(C)COc1ccc(-c2cnc(-c3ccc(C[C@H](NC(=O)c4ccc(C(C)(C)C)cc4)C(=O)NCCC(=O)O)cc3)nc2)cc1` [Compound 680], the EC50 was 5000 to 10000 nM.

Turning to `CC(C)CCSc1ccc(-c2cnc(-c3ccc(C[C@H](NC(=O)c4ccc(C(C)(C)C)cc4)C(=O)NCCC(=O)O)cc3)nc2)cc1` [Compound 681], the concentration for a half-maximal effect (EC50) was 5000 to 10000 nM.

For the compound `CC(C)(C)c1ccc(C(=O)N[C@@H](Cc2ccc(-c3ncc(-c4ccc(OCC(F)(F)F)cc4)cn3)cc2)C(=O)NCCC(=O)O)cc1` [Compound 682], the EC50 lay within 2500 to 5000 nM.

Take `CCCCCCCCc1ccc(-c2cnc(-c3ccc(C[C@H](NC(=O)c4ccc(C(C)(C)C)cc4)C(=O)NCCC(=O)O)cc3)nc2)cc1` [Compound 683]: the 50% effective concentration (EC50) lay in the range of 800 to 2500 nM.

`CC(C)(C)c1ccc(C(=O)N[C@@H](Cc2ccc(-c3ncc(-c4ccc(OCC5CC5)cc4)cn3)cc2)C(=O)NCCC(=O)O)cc1` [Compound 684]: the concentration for a half-maximal effect (EC50) lay within 5000 to 10000 nM.

With `CC(C)COc1ccc(-c2cnc(-c3ccc(C[C@H](NC(=O)c4ccc(C(C)(C)C)cc4)C(=O)NCCC(=O)O)cc3)nc2)cc1` [Compound 685], the EC50 was 2500 to 5000 nM.

As to `CCCCCCNc1ccc(-c2cnc(-c3ccc(C[C@H](NC(=O)c4ccc(C(C)(C)C)cc4)C(=O)NCCC(=O)O)cc3)nc2)cc1` [Compound 686], the EC50 is 2500 to 5000 nM.

For the compound `CCCc1ccc(-c2cnc(-c3ccc(C[C@H](NC(=O)c4ccc(C(C)(C)C)cc4)C(=O)NCCC(=O)O)cc3)nc2)cc1` [Compound 687], the EC50 lay within 2500 to 5000 nM.

With `CC(C)(C)c1ccc(C(=O)N[C@@H](Cc2ccc(-c3ncc(-c4ccc(OC5CCCC5)cc4)cn3)cc2)C(=O)NCCC(=O)O)cc1` [Compound 688], the EC50 lay in the range of 2500 to 5000 nM.

Consider `CC(C)(C)c1ccc(C(=O)N[C@@H](Cc2ccc(-c3ncc(-c4ccc(C#Cc5ccccc5)cc4)cn3)cc2)C(=O)NCCC(=O)O)cc1` [Compound 689], for which the EC50 is 2500 to 5000 nM.

Consider `CCCCCC(=O)c1ccc(-c2cnc(-c3ccc(C[C@H](NC(=O)c4ccc(C(C)(C)C)cc4)C(=O)NCCC(=O)O)cc3)nc2)cc1` [Compound 690], for which the EC50 lay within 2500 to 5000 nM.

Take `CC(C)(C)c1ccc(C(=O)N[C@@H](Cc2ccc(-c3ncc(-c4ccc(OC(F)=C(F)F)cc4)cn3)cc2)C(=O)NCCC(=O)O)cc1` [Compound 691]: the EC50 lay in the range of 2500 to 5000 nM.

On to `CCCCCCc1noc(-c2cnc(-c3ccc(C[C@H](NC(=O)c4ccc(C(C)(C)C)cc4)C(=O)NCCC(=O)O)cc3)nc2)n1` [Compound 692], for which the concentration for a half-maximal effect (EC50) lay within 5000 to 10000 nM.

On to `CCCCCCOCC1CCN(c2cnc(-c3ccc(C[C@H](NC(=O)c4ccc(C(C)(C)C)cc4)C(=O)NCCC(=O)O)cc3)nc2)CC1` [Compound 693], for which the EC50 is 5000 to 10000 nM.

For the compound `C=CCCOc1ccc(-c2cnc(-c3ccc(C[C@H](NC(=O)c4ccc(C(C)(C)C)cc4)C(=O)NCCC(=O)O)cc3)nc2)cc1` [Compound 694], the EC50 lay in the range of 2500 to 5000 nM.
